Here are results for one molecule from patent US20240009174A1, “METHODS FOR DISRUPTING MITOCHONDRIAL UNFOLDED PROTEIN RESPONSE” (Health Research, Inc., priority 2020, published 2024).

Common to all, as to assay type: cell-based
Assay [1] relates to PC-3 cells. As to the kind of experiment: Protein expression of nuclear encoded OXPHOS subunits.
The test system of assay [2] is HSP60, HSP10, ClpP and LONP1. The assay can be described thus: Expression of UPRmt components after DCEM1. Particulars: PCa cells.
The subject of assay [3] is LNCaP and PC-3 cells. As to the kind of experiment: DEVDase (caspase) activity in cell lysates. Particulars: 24 and 48 hours. The procedure: FIG. 6. Pharmacological inhibition of HSP60-ClpP interaction induces UPR^mt and PCa cell death. (A) Docking of DCEM1 into apical domain of HSP60. (B) LNCaP and PC-3 cells were treated with DCEM1 for 24 hours and HSP60-ClpP interaction was analyzed by co-immunoprecipitation assay. (C) LNCaP and PC-3 cells were treated with DCEM1 for 24 hours and mitoROS levels were analyzed by flow cytometry using mitoSOX dye. (D) LNCaP and PC-3 cells were treated with DCEM1 for 24 hours and poly-Ub protein levels were analyzed by western blotting. (E) LNCaP and PC-3 cells were treated with DCEM1 for 24 and 48 hours and apoptotic cell populations were analyzed by flow cytometry using Annexin V FITC/PI method as explained in materials and methods. […] (F) LNCaP and PC-3 cells were treated with DCEM1 for 24 and 48 hours and lysates were prepared and analyzed for DEVDase activity using specific peptide substrate. […] (G) LNCaP and PC-3 cells were pre-treated with SKQ1 followed by DCEM1 treatment and analyzed for cell viability by MTT assay. (H) LNCaP and PC-3 cells were treated with either DCEM1 or H2O2 (200 μM) for 24 hours and total DNA were isolated and analyzed for mtDNA damage as described in materials and methods.
FIG. 7. […] (C) ClpP protein was over-expressed in LNCaP and PC-3 cells followed by DCEM1 treatment and level of poly-ubiquitinated protein was analyzed by western blotting. […]

The test system of assay [4] is LNCaP and PC-3 cells. The assay can be described thus: mitoROS by flow cytometry using mitoSOX dye. The method, then: FIG. 6. Pharmacological inhibition of HSP60-ClpP interaction induces UPR^mt and PCa cell death. (A) Docking of DCEM1 into apical domain of HSP60. (B) LNCaP and PC-3 cells were treated with DCEM1 for 24 hours and HSP60-ClpP interaction was analyzed by co-immunoprecipitation assay. (C) LNCaP and PC-3 cells were treated with DCEM1 for 24 hours and mitoROS levels were analyzed by flow cytometry using mitoSOX dye. (D) LNCaP and PC-3 cells were treated with DCEM1 for 24 hours and poly-Ub protein levels were analyzed by western blotting. (E) LNCaP and PC-3 cells were treated with DCEM1 for 24 and 48 hours and apoptotic cell populations were analyzed by flow cytometry using Annexin V FITC/PI method as explained in materials and methods. In (E) top panel, the bars in each series from left to right are control, 5, 10, and 20, and in (E) bottom panel, the bars in each series from left to right are DMSO, 5, 10, and 20. (F) LNCaP and PC-3 cells were treated with DCEM1 for 24 and 48 hours and lysates were prepared and analyzed for DEVDase activity using specific peptide substrate. In (F), the bars in each series from left to right are DMSO, 5, 10, and 20. (G) LNCaP and PC-3 cells were pre-treated with SKQ1 followed by DCEM1 treatment and analyzed for cell viability by MTT assay. (H) LNCaP and PC-3 cells were treated with either DCEM1 or H2O2 (200 μM) for 24 hours and total DNA were isolated and analyzed for mtDNA damage as described in materials and methods.
FIG. 7. […] (A) LNCaP and PC-3 cells were pre-treated with either rotenone or antimycin-A followed by DCEM1 treatment and mitochondrial ROS was analyzed as described in material and methods (data represented as fold change compared to control). In (A), the bars in each series from left to right are control, DCEM1, Rot+DCEM1, Anti A+DCEM1, Rot, and Anti A (B) ClpP protein was over-expressed in LNCaP and PC-3 cells followed by DCEM1 treatment and mitochondrial ROS was analyzed as described in material and methods (Data represented as fold change compared to control). […]
A general note: In flow cytometry, cells or beads pass a laser one at a time.

With `CCOc1cc(CNCc2nc3ccccc3[nH]2)ccc1OCc1cccs1` [DCEM1], in assay [1], the “nuclear encoded subunits of OXPHOS Complexes” value was “downregulation of nuclear encoded subunits of OXPHOS Complexes”. The “expression of UPRmt components HSP60, HSP10, ClpP and LONP1” value in assay [2] was “failed to alter”. Further, the “caspase (DEVDase) activity” value in assay [3] is “robust caspase activity”. For the same molecule, in assay [4] (ClpP over-expressed in LNCaP and PC-3 cells followed by DCEM1), the “DCEM1-induced mitoROS production and DEVDase activity with ClpP overexpression” value is “inhibited”. Further, the mitoROS levels result in assay [4] (LNCaP and PC-3 cells, 24 hours) is recorded as “mitoROS upregulation”. In addition, the “DCEM1-induced mitoROS production with inhibition of Complex I or III” value in assay [4] (pre-treated with rotenone or antimycin-A followed by DCEM1) is given as “not attenuated”.
